Source: patent US7297797B2, “Pyrrolines” (Bayer CropScience AG, priority 2002, dated 2007)
Like-named read-outs stand apart in the source and are kept apart here.

Tests used:
[1] = system: caterpillars of the army worm (Spodoptera exigua); assay: Spodoptera exigua test; format: in vivo; settings: 100 ppm active compound, cabbage leaves (Brassica oleracea) dipped
Method: (§1) Spodoptera exigua Test • Solvent: 7 parts by weight of dimethylformamide • Emulsifier: 2 parts by weight of alkylaryl polyglycol ether To produce a suitable preparation of active compound, 1 part by weight of active compound is mixed with the stated amounts of solvent and emulsifier, and the concentrate is diluted with emulsifier-containing water to the desired concentration. Cabbage leaves (Brassica oleracea) are treated by being dipped into the preparation of active compound of the desired concentration and are populated with caterpillars of the army worm (Spodoptera exigua) while the leaves are still moist. After the desired period of time, the kill in % is determined. 100% means that all caterpillars have been killed; 0% means that none of the caterpillars have been killed. In this test, for example, the following compounds of the preparation examples show good activity: […]

[2] = system: caterpillars of the army worm (Spodoptera frugiperda); assay: Spodoptera frugiperda test; format: in vivo; settings: 168 h, 100 ppm active compound, cabbage leaves (Brassica oleracea) dipped, after 7 d, read-out: Kill rate in % after 7 d
Method: as §1, with “frugiperda” for “exigua”, “frugiperda)” for “exigua)”

[3] = system: larvae of the mustard beetle (Phaedon cochleariae); assay: Phaedon larvae test; format: in vivo; settings: 168 h, 100 ppm active compound, cabbage leaves (Brassica oleracea) dipped, after 7 d, read-out: Kill rate in % after 7 d
Method: as §1, with “Phaedon Larvae Test” for “Spodoptera exigua Test”, “with larvae” for “with caterpillars”, “the mustard beetle (Phaedon cochleariae)” for “the army worm (Spodoptera exigua)”, “all beetle larvae” for “all caterpillars”, “the beetle larvae” for “the caterpillars”

[4] = system: caterpillars of the diamondback moth (Plutella xylostella); assay: Plutella test; format: in vivo; settings: 100 ppm active compound, cabbage leaves (Brassica oleracea) dipped
Method: as §1, with “Plutella” for “Spodoptera exigua”, “diamondback moth (Plutella xylostella)” for “army worm (Spodoptera exigua)”

[5] = system: greenhouse red spider mite (Tetranychus urticae); assay: Tetranychus test (OP-resistant/dip treatment); format: in vivo; settings: 168 h, 100 ppm active compound, infested bean plants (Phaseolus vulgaris) dipped, OP-resistant, after 7 d, read-out: Kill rate in % after 7 d
Method: Tetranychus Test (OP-Resistant/Dip Treatment)
• Solvent: 7 parts by weight of dimethylformamide • Emulsifier: 2 parts by weight of alkylaryl polyglycol ether
To produce a suitable preparation of active compound, 1 part by weight of active compound is mixed with the stated amounts of solvent and emulsifier, and the concentrate is diluted with emulsifier-containing water to the desired concentration.
Bean plants (Phaseolus vulgaris) which are heavily infested by all stages of the greenhouse red spider mite (Tetranychus urticae) are treated by being dipped into a preparation of active compound of the desired concentration.
After the desired period of time, the activity in % is determined. 100% means that all spider mites have been killed; 0% means that none of the spider mites have been killed.
In this test, for example, the following compounds of the preparation examples show good efficacy: […]

[6] = system: caterpillars of the cotton bollworm (Heliothis armigera); assay: Heliothis armigera test; format: in vivo; settings: Helicoverpa armigera, 168 h; 100 ppm active compound; soybean shoots (Glycine max) dipped; after 7 d; read-out: Kill rate in % after 7 d
Method: as §1, with “Heliothis armigera” for “Spodoptera exigua”, “Soybean shoots (Glycine max)” for “Cabbage leaves (Brassica oleracea)”, “cotton bollworm (Heliothis armigera)” for “army worm (Spodoptera exigua)”

[7] = log P determination by HPLC on reversed-phase column (EEC Directive 79/831 Annex V.A8); format: physicochemical
Method: The log P values given in the preparation examples and tables above are determined in accordance with EEC Directive 79/831 Annex V.A8 by HPLC (High Performance Liquid Chromatography) on a reversed-phase column (C 18). Temperature: 43° C. In the acidic range, determination is carried out at pH 2.3 using the mobile phases 0.1% aqueous phosphoric acid and acetonitrile; linear gradient from 10% acetonitrile to 90% acetonitrile (in the tables marked with a)). In the neutral range, determination is carried out at pH 7.5 using the mobile phases 0.01 molar aqueous phosphate buffer solution and acetonitrile; linear gradient from 10% acetonitrile to 90% acetonitrile (in the tables marked with b)). Calibration is carried out using unbranched alkan-2-ones (of 3 to 16 carbon atoms) with known lopP values (determination of the log P values by the retention times using linear interpolation between two successive alkanones).

[8] = reversed-phase C18 HPLC column; acidic range, pH 2.3, 0.1% aqueous phosphoric acid/acetonitrile, 43° C.; marked a) in tables, read-out: log P (pH 2.3)
[9] = reversed-phase C18 HPLC column; neutral range, pH 7.5, 0.01 molar aqueous phosphate buffer/acetonitrile, 43° C.; marked b) in tables, read-out: log P (pH 7.5)

| chromatographic logP [7, 8] | chromatographic logP [7, 9] | Structure (SMILES) | Kill rate in after 7 d [1] [%] | pest or weed control at 100 ppm [2] [%] | pest or weed control at 100 ppm [3] [%] | Kill rate in % after 7 d [4] [%] | pest or weed control at 100 ppm [5] [%] | pest or weed control at 100 ppm [6] [%] |
| --- | --- | --- | --- | --- | --- | --- | --- | --- |
| 5.79 | 6.06 | CC(C)(C)c1noc(-c2ccc(-c3ccc(C4CCC(c5c(F)cccc5F)=N4)c(F)c3)cc2)n1 (stereo not shown) [Example 5, 3-tert-butyl-5-{4′-[5-(2,6-difluorophenyl)-3,4-dihydro-2H-pyrrol-2-yl]-3′-fluoro-1,1′-biphenyl-4-yl}-1,2,4-oxadiazole] | 100 | 100 | 100 | 100 | 98 | 100 |
| 5.65 | 5.97 | CC(C)(C)c1nc(-c2ccc(-c3ccc(C4CCC(c5c(F)cccc5F)=N4)c(F)c3)cc2)no1 (stereo not shown) [Example 6, 5-tert-butyl-3-{4′-[5-(2,6-difluorophenyl)-3,4-dihydro-2H-pyrrol-2-yl]-3′-fluoro-1,1′-biphenyl-4-yl}-1,2,4-oxadiazole] | 100 | 100 | 100 | 100 | 98 | 100 |
